Measured values from PubChem BioAssay AID1645864 (Buhrlage Lab, Dana-Farber Cancer Institute and Novartis …, 2021).
Active and inactive are the calls of the source.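 The calls were made as follows: active = maximal inhibition of USP17 at or above 30% in the confirmation dose-response, a value not among the printed readouts; inactive = the rest.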

Biological target: Ubiquitin carboxyl-terminal hydrolase 17-like protein 5 (Homo sapiens) (UniProt A8MUK1)
Assay: ubiquitin-specific protease 17 inhibitors, concentration series, biochemical, verification of primary actives (AID 1645864)
Details: purified USP17, ubiquitin-rhodamine cleavage fluorescence, 3 h

Chain of Ubiquitin carboxyl-terminal hydrolase 17-like protein 5 (Homo sapiens) (A8MUK1 whole entry, looked up): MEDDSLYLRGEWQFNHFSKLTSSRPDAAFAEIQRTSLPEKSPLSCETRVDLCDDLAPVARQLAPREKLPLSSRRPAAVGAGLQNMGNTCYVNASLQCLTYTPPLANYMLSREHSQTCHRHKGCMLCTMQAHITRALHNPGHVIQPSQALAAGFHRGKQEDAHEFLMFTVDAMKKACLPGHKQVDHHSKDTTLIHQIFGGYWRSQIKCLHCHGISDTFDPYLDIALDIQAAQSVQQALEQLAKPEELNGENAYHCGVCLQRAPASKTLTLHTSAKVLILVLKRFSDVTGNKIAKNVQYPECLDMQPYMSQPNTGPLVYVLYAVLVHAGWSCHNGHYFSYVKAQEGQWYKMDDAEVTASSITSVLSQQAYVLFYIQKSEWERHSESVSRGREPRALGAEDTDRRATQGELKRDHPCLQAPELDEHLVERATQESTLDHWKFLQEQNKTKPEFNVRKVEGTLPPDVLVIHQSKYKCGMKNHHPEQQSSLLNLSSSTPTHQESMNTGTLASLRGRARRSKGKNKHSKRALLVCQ

SMILES | IC50
COc1ccc(C(=O)Nc2n[nH]c(C)c2-c2cccc(C)c2)c(OC)c1 | 2.74 µM
O=C(COc1ccc(F)cc1)Nc1cc(F)c2nc(N3CCOCC3)ccc2c1 | 4.34 µM
O=C(CNC(=O)c1cc2ccccc2o1)Nc1ccc2c(c1)OCCO2 | 46 µM
CSc1ncccc1C(=O)OCc1ccc(Br)cc1 | > 50 µM (inactive)
Cc1ccc2c(c1)N(C)C(=O)c1cc(NC(=O)c3ccc(F)cc3)ccc1O2 | 2.03 µM
CN1CCN(C(=O)c2cc(-c3ccn(-c4ccccc4)n3)n3ccccc23)CC1 | > 50 µM (inactive)
CC1=C(c2ccc(F)cc2)S(=O)(=O)NC1=NCC(=O)Nc1ccc(F)cc1 | 40.6 µM
O=C(c1ccc2ncccc2c1)N1CCC2(C1)Nc1cccnc1NC2=NC1CCCC1 (stereo unspecified) | > 50 µM (inactive)
CCOC(=O)N1CCN(S(=O)(=O)c2ccc(C(=O)Nc3ccc(Br)cc3)cc2)CC1 | 1.78 µM
O=C(Cn1nc2ccc(C(=O)NCc3ccccc3)cn2c1=O)Nc1ccc2c(c1)OCO2 | 45.1 µM
Cc1ccc(-c2nc(NC(=O)Nc3ccc(Cl)cc3)sc2C)cc1 | 19.6 µM
Cc1c(S(=O)(=O)NC2CCCCNC2=O)sc2ccc(Cl)cc12 (stereo unspecified) | 43.1 µM
CCOc1ccc2c(c1)c(=O)c(C(=O)c1ccc(C)cc1)cn2CC(=O)Nc1ccc(OC)c(OC)c1 | 0.464 µM
COC(=O)c1ccc(Cn2cnc3ccc(Br)cc3c2=O)o1 | > 50 µM (inactive)
COc1ccc(NC(=O)CC(=O)c2ccc([N+](=O)[O-])cc2)cc1S(=O)(=O)Nc1ccc(Br)cc1 | 22 µM
O=C1N(Cc2ccc(F)cc2)CCN1c1ccc(C(F)(F)F)cn1 | > 50 µM (inactive)
CCC/C=C\C#CC/C=C\CCCCCCCC(=O)O | 2.37 µM
COc1ccc2nc(SCC(=O)Nc3ccc(NC(C)=O)cc3)c(C)cc2c1 | 6.42 µM
COc1cc(NC(=O)COC(=O)Cn2cnc3ccccc32)cc(OC)c1 | > 50 µM (inactive)
COc1ncccc1CN1CCn2c(Cn3cncn3)cnc2C1C (stereo unspecified) | > 50 µM (inactive)
CCN1CCCC1CN(Cc1cc2cc(OC)ccc2[nH]c1=O)C(=O)NCc1ccccc1 (stereo unspecified) | > 50 µM (inactive)
O=C(/C=C/c1ccc2c(c1)OCO2)Nc1nc2c(s1)COCC2 | 17.4 µM
FC(F)(F)c1cccc(Nc2nnc(-c3cccnc3)s2)c1 | 5.64 µM
CC1(C(=O)NC2CCCC2)Cn2c(cc3ccccc32)C(=O)N1c1ccc(F)cc1 (stereo unspecified) | 30.9 µM
CCn1c(CN2CCCC(c3nc(-c4cccnc4)n[nH]3)C2)nc2ccccc21 (stereo unspecified) | > 50 µM (inactive)
c1ccc(Cc2nn3c(-c4cccnc4)nnc3c3ccccc23)cc1 | 0.42 µM

SMILES | IC50
CCc1ccc(NC(=O)COC(=O)c2n[nH]c3ccccc23)cc1 | 3.42 µM
COc1ccccc1CNC(=O)CCCCn1c(=O)c2ccccc2n(Cc2ccccc2C#N)c1=O | 13.1 µM
c1ccc2c(-c3nc(C4CC4)no3)nnc(NCc3ccncc3)c2c1 | 38.7 µM
Cc1cccc(NC(=O)c2ccn(COc3ccc(F)cc3F)n2)c1C | > 50 µM (inactive)
CN(C)c1cccc(C(=O)Nc2cc(-c3cccnc3)no2)c1 | 26.9 µM
O=C(Cc1ccccc1F)N1CCC2(CC1)CC1(CO2)Nc2ccccc2-n2cccc21 (stereo unspecified) | > 50 µM (inactive)
Cc1ccc(NC(=O)c2ccn(COc3ccc(F)cc3)n2)nc1 | 32.1 µM
C=C[C@]1(C)C=C2C(=O)[C@]3(O)OC(=O)[C@@]4(CCCC(C)(C)[C@H]34)[C@@]2(O)CC1 | 29.7 µM
Cn1c(=O)[nH]c2nncnc2c1=O | 7.23 µM
CC1(O)CC(=O)c2c(cc3cc(O)cc(O)c3c2O)C1 (stereo unspecified) | 0.115 µM
Cc1ccccc1NC(=O)Nc1ccccc1OCc1cc(=O)n2cccc(C)c2n1 | 0.663 µM
CC1(C)CC(n2[nH]c(=O)c3c2NC(=O)CSC3c2ccc(OCc3ccccc3)cc2)CCO1 (stereo unspecified) | 21 µM
O=C(Cn1c(-c2ccccc2)ncc(C(=O)NC2CC2)c1=O)Nc1ccccc1 | 12.1 µM
COc1ccc(C2CC(c3ccc(C)cc3)N(C(=O)C3CC3)c3ncnn32)cc1 (stereo unspecified) | > 50 µM (inactive)
O=C(NCc1ccc2c(c1)OCO2)c1nn(C23CC4CC(CC(C4)C2)C3)cc1[N+](=O)[O-] | > 50 µM (inactive)
COc1cccc(CNC(=O)c2ccc3c(c2)NC(=O)C2CCCN32)c1OC (stereo unspecified) | > 50 µM (inactive)
COc1ccc(C(C(=O)NCc2ccccc2)N(C(=O)CCN2CCc3ccccc32)c2ccc(C)c(C)c2)cc1 (stereo unspecified) | > 50 µM (inactive)
O=C(COc1cccc(C(=O)NCc2ccccc2)c1)Nc1ccc(Oc2ccccc2)cc1 | 34.5 µM
O=C(O)Cc1ccc(Nc2nc3ccccc3n3nnnc23)cc1 | > 50 µM (inactive)
Cc1cc(C)cc(NC(=O)CN2C(=O)CC(c3ccccc3)Sc3ccccc32)c1 (stereo unspecified) | > 50 µM (inactive)
O=c1ccc(-c2noc(Cc3c(F)cccc3Cl)n2)c[nH]1 | > 50 µM (inactive)
Cc1ccnc(NC(=O)c2ccn(COc3ccc(Cl)cc3)n2)c1 | 24.2 µM
CCOC(=O)Nc1ccc(N2CCn3c(nc4ccccc43)C2)cc1OC | > 50 µM (inactive)
O=C(COC(=O)c1ccc(Cl)cc1)Nc1ccc2[nH]c(=O)[nH]c2c1 | 9.91 µM
O=C(CCn1c(=O)c2sccc2n(CC(=O)OCc2ccccc2)c1=O)NCc1ccc2c(c1)OCO2 | 14.1 µM
Cc1ccc2c(c1)[C@]1(C(=O)N2)[C@@H]2C(=O)N(c3cccc(C(F)(F)F)c3)C(=O)[C@@H]2C2CCCN21 (stereo partly specified) | > 50 µM (inactive)

SMILES | IC50
O=C(CSc1nc2cc(C(F)(F)F)ccc2s1)NCC(=O)c1ccccc1 | 1.86 µM
CC1=C(c2ccc(C)c(C)c2)S(=O)(=O)NC1=NCC(=O)NCCCc1ccccc1 | 12.5 µM
COCCn1ccc2nc(C)c(C(=O)Nc3ccc4c(c3)OCCO4)cc2c1=O | 37 µM
Cc1nc(N2CCCC2)ncc1-c1cc(=O)[nH]c(N2CCc3ccccc3C2)n1 | 21.6 µM
Cc1nn(Cc2ccccc2)c2sc(C(=O)Nc3nc4ccccc4[nH]3)cc12 | 23.5 µM
O=C1CC(O)C(O)c2cccc(O)c21 (stereo unspecified) | 9.86 µM
O=C(Cn1c(=O)n(CCCC(=O)N2CC=C(c3ccccc3)CC2)c(=O)c2ccccc21)NCCC1=CCCCC1 | 35 µM
CN1CCN(C(=O)c2cc(-c3ccn(CC4CC4)n3)n3ccccc23)CC1 | > 50 µM (inactive)
O=C(CSc1ccc(-c2cccc([N+](=O)[O-])c2)nn1)Nc1cccc(F)c1 | 2.7 µM
O=C(Nc1cc(-c2cccnc2)no1)c1ccc(F)c(F)c1 | 19.3 µM
COc1ccc(CN(C(=O)c2cc(-c3ccc(C)cc3)on2)C2CCS(=O)(=O)C2)cc1 (stereo unspecified) | 17.3 µM
CC(c1ccccc1)c1nc(-c2ccc(=O)[nH]c2)no1 (stereo unspecified) | > 50 µM (inactive)
Cc1ccc(-c2nc(-c3cccs3)cc(C(F)(F)F)c2C#N)cc1 | > 50 µM (inactive)
CC(C)OC(=O)c1cc2c(ccn2C)n1CC(=O)N1CCN(C(=O)c2ccco2)CC1 | > 50 µM (inactive)
CCCCCC(O)c1c(O)cc2c(c1O)C(=O)c1c(O)cc(O)cc1C2=O (stereo unspecified) | > 50 µM (inactive)
CCCCC/C=C/C=C/C(=O)OC1C(O)CC(c2ccc3c(c2O)C(=O)c2c(O)cc4cc(C)cc(O)c4c2C3=O)OC1C (stereo unspecified) | 0.394 µM
O=C(CC(C(=O)Nc1ccc2c(c1)OCO2)C(=O)c1ccccc1)Nc1ccc(Cl)cc1F (stereo unspecified) | 11.4 µM
COc1ccc(CNC(=O)CN2C(=O)CC(c3ccccc3)=Nc3ccccc32)cc1 | 4.42 µM
O=C(Cc1ccccc1F)Nc1nc(-c2ccco2)c(-c2ccco2)s1 | > 50 µM (inactive)
COc1ccc(C(=O)Nc2cc3c4c(c2)C(C)C(=O)N4CCC3)cc1 (stereo unspecified) | > 50 µM (inactive)
COc1cc(C)cc2c1C(=O)c1c(cc(O)c(Cl)c1O)C2=O | 1.57 µM
O=C(/C=C/c1cnc2ccccc2c1)NCc1ccccc1 | 43.4 µM
CCc1ccc(C(C)NC(=O)C2CCN(c3ccc4nncn4n3)CC2)cc1 (stereo unspecified) | > 50 µM (inactive)
CC(=O)O[C@H]1[C@]2(O)C[C@]34SS[C@](CO)(C(=O)N3[C@@H]2C[C@@]12O[C@@H](C)C(C)(C)C2=O)N(C)C4=O | > 50 µM (inactive)
Cc1sc2ncn3c(=O)n(CC(=O)Nc4ccc(F)c(Cl)c4)nc3c2c1C | 2.82 µM
CCOc1ccc(C2=NCCNC3=C2C(c2ccccc2)N(c2ccccc2)C3=O)cc1 (stereo unspecified) | > 50 µM (inactive)

SMILES | IC50
Cc1ccc(Nc2nc(Nc3cccc(Cl)c3)nc3nccnc23)cc1 | > 50 µM (inactive)
CCc1ccc(Nc2cc(C(=O)NCCCOC(C)C)c3ccccc3n2)cc1 | 10.7 µM
CCN1C(SCc2ccc(F)cc2)=NS(=O)(=O)c2ccccc21 | > 50 µM (inactive)
O=C1C/C(=C\c2cccc(Cl)c2)Cc2ccccc21 | > 50 µM (inactive)
CN1C(=O)c2cc(NC(=O)c3ccccc3Cl)ccc2Oc2ccccc21 | > 50 µM (inactive)
COc1ccc(OC)c(NC(=O)c2cc(Cl)ccc2OC)c1 | 2.53 µM
COc1ccc2nc(Nc3ncc4c(n3)CCCC4=O)nc(C)c2c1 | > 5 µM (inactive)
CCCc1cc(=O)oc2cc(OCC(=O)NCc3ccc(OC)cc3)ccc12 | 9.4 µM
Cc1sc(NC(=O)CNc2ccccc2)nc1-c1ccc2c(c1)CCN2C(=O)C(C)C | > 50 µM (inactive)
CC(C)CCn1c(=O)c2ccccc2n2c(CCC(=O)NC3CCCCCC3)nnc12 | > 50 µM (inactive)
Cc1ccc2c(=O)c3c([nH]c2c1C)CCN(CC(=O)NCc1ccc2c(c1)OCO2)C3 | 32.8 µM
CC(C)c1cc(NCc2ccccc2)n2nc(-c3cccnc3)nc2n1 | 18.9 µM
COc1ccc(NC(=O)Cn2c(CS(=O)(=O)c3ccc(C)cc3)nc3ccccc32)cc1 | 6.52 µM
CSc1ncccc1C(=O)NC1(O)C(=O)c2ccccc2C1=O | 4.57 µM
COc1cccc2cccc(O)c12 | > 50 µM (inactive)
O=S(=O)(Nc1ccc(O)cc1)c1ccc2oc3ccc(S(=O)(=O)Nc4ccc(O)cc4)cc3c2c1 | 43.6 µM
Cc1nc(-c2ccc(NC(=O)N3CCN(c4ccccn4)CC3)cc2)no1 | > 50 µM (inactive)
O=C(COc1nsnc1N1CCOCC1)Nc1ccc(F)c(F)c1 | > 50 µM (inactive)
Cc1cccc(OCCn2c(CCNC(=O)C3CCCCC3)nc3ccccc32)c1 | 28.6 µM
O=C(c1cnccn1)N1CCc2[nH]c3ccc(F)cc3c2C1 | > 50 µM (inactive)
CC1CCN(c2cc(-n3cnc(C(=O)N4CCCCC4)c3)ncn2)CC1 | > 50 µM (inactive)
O=C1CC(C(=O)Nc2ccc(F)cc2)n2nc(SCc3ccccc3)nc2N1 (stereo unspecified) | 38.3 µM
CCCn1cc(C(=O)N2CCC3(CC2)CC2(CO3)Nc3ccccc3-n3cccc32)c(C)n1 (stereo unspecified) | 27.6 µM
